These results are taken from PMC10539439 (Pharmacological Reports, 2023).

Assay [1] can be described thus: Plasma glucose, triglyceride and total cholesterol of obese rats. Format: in vivo, rat. The following applies: for plasma glucose concentration / plasma total cholesterol concentration / plasma triglyceride concentration: high-fat diet, single rats 1-6. The procedure:
On the 26th day of the experiment, 20 min after ip administration of heparin (5000 IU/rat) and thiopental (70 mg/kg b.w.), plasma was collected from the left carotid artery and then centrifuged at 600 × g (15 min, 4 °C) to obtain the plasma.
To determine the glucose, triglyceride, or cholesterol level in plasma, standard enzyme and spectrophotometric tests (Biomaxima S.A. Lublin, Poland) were used. The substrate was decomposed with enzymes appropriate for the relevant product, which was converted to a colored compound. The colouration was proportional to the concentration. The absorbance was measured at a wavelength of 500 nm.

A short description of assay [2]: Food intake of rats fed a high-fat diet. The format is in vivo, rat. Conditions: for food intake: high-fat diet, groups (cages) 1-3. The procedure: Male Wistar rats were housed in pairs and fed a high-fat diet consisting of a 40% fat blend (Labofeed B with 40% lard, Morawski, Manufacturer Feed, Poland) for 14 weeks, with water available ad libitum. Control rats were fed a standard diet (Labofeed B, Morawski Manufacturer Feed, Poland). After 10 weeks, rats with obesity-induced via their diet were randomly divided into three equal groups that had the same mean body weight and were treated ip with test compounds at doses of 2 or 5 mg/kg b.w./day (high-fat diet + 4OHGuanabenz) or control group: vehicle–water 0.3 ml/kg (high-fat diet + vehicle = obesity control group) once a day in the morning between 9:00 AM and 10:00 AM for 25 days. Control rats were maintained on a standard diet, with ip administration of vehicle – water (standard diet + vehicle = control group).
The high-fat diet contained 550 kcal and the standard diet 280 kcal per 100 g.
Food intake was measured three times a week, immediately before drug administration. In this target, food was provided to the animals in a certain amount (100 g/cage). The weight of food was measured using dedicated scale (WPT 1C, RADWAG Wagi Elektroniczne, Poland). Next, the total amount of food that the animals had not eaten during that period of time was collected from each cage and weighed, and then, the data were recorded. The next portion of food was subsequently weighed before serving, and so on.

In another assay the target is T1, α2B-adrenoceptor (Homo sapiens, UniProt P18089).
T1 sequence (P18089 1-450): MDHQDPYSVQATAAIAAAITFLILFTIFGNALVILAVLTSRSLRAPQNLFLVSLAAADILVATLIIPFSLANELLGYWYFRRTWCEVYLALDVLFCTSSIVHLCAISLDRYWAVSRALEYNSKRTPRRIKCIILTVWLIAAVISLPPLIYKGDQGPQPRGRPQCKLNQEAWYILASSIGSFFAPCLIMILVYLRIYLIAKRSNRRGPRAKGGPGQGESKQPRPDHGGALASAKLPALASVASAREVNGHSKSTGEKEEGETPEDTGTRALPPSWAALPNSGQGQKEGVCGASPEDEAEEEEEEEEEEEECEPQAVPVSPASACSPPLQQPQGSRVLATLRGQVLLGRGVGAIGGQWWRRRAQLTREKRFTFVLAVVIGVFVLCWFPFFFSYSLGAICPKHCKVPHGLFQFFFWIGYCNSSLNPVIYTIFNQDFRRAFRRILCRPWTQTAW
Put plainly: Intrinsic activity, AequoScreen aequorin calcium mobilization. The format is cell-based. The protocol: The intrinsic activity at α2B-adrenoceptor was evaluated by luminescence detection of calcium mobilization using the recombinant expressed jellyfish photoprotein, aequorin.
Measurements were performed with the α2B-adrenergic AequoScreen cell line (PekinElmer cat. no. ES-031-AF). Cell density, in 96-well format measurements, was 5000 cells per well. […] Compound concentration series (50 μL/well) were diluted in 0.1% BSA (Intergen, cat. no. 3440–75) containing assay buffer (D-MEM/F-12, Invitrogen cat. no. 11039) and prepared in white ½ Area Plate—96-well microplates (PerkinElmer, cat. no. 6005560). The cell suspension was dispersed on the ligands using POLARstar optima reader injectors (BMG Labtech, Germany).
The concentration and dilution series having four replicates were prepared as instructed in the AequoScreen Starter Kit Manual. Cells were injected into wells with standard agonist or tested compounds using the POLARstar optima reader (BMG Labtech, Germany), and emitted light was recorded for 20 s. For the antagonist assay, cells were injected (50 μL) into the assay plate with antagonists (50 μL).

Each structure is given as a SMILES string. pEC50: −log10 of the molar value. Several values for one entry are separate records, joined by “and”; a condition that tells them apart may be missing. Identical values can stand only once.

Take `Cl.N=C(N)NN=Cc1c(Cl)cc(O)cc1Cl` [4-OH-Guanabenz, 2-[(2,6-Dichloro-4-hydroxyphenyl)methylene]hydrazinecarboximidamide Hydrochloride]: the “effect on plasma total cholesterol (in words)” value in assay [1] (high-fat diet rats, 5 mg/kg b.w.) was “highest plasma level of total cholesterol”. Moreover, the “effect on plasma triglyceride level (in words)” value in assay [1] (high-fat diet rats, 5 mg/kg b.w., vs obese control) is listed as “significantly decreased plasma triglyceride levels”. Besides, the plasma glucose concentration is 4.77 mmol/L and 5.43 mmol/L and 6.06 mmol/L and 5.37 mmol/L and 5.51 mmol/L in assay [1] (2mg/kg); 4.45 mmol/L and 5.37 mmol/L and 4.63 mmol/L and 5.39 mmol/L and 3.28 mmol/L and 4.68 mmol/L in assay [1] (5mg/kg). Further, the “plasma total cholesterol concentration” value in assay [1] (2mg/kg) was 0.86 mmol/L and 0.71 mmol/L and 0.87 mmol/L and 0.75 mmol/L and 0.78 mmol/L and 0.93 mmol/L; in assay [1] (5mg/kg), 0.93 mmol/L and 0.87 mmol/L and 0.8 mmol/L and 1.08 mmol/L and 0.88 mmol/L and 0.84 mmol/L. For the same compound, the plasma triglyceride concentration in assay [1] (2mg/kg) is 0.17 mmol/L and 0.12 mmol/L and 0.21 mmol/L and 0.13 mmol/L and 0.14 mmol/L; in assay [1] (5mg/kg), 0.12 mmol/L and 0.2 mmol/L and 0.1 mmol/L and 0.13 mmol/L and 0.18 mmol/L. The “effect on blood glucose level (in words)” value in assay [1] (obese rats, both doses (2 or 5 mg/kg b.w.), vs obese animals treated with water) is “significantly lower blood glucose levels”. The “effect on calories consumed (in words)” value in assay [2] (high-fat diet rats, ip at both doses (2 or 5 mg/kg b.w.), vs obesity control group) is given as “reduced the number of calories consumed”. In addition, the food intake is 995.5 kcal/2rats and 924 kcal/2rats and 960 kcal/2rats in assay [2] (2mg/kg, week 1, 2 mg/kg); 891 kcal/2rats and 654.5 kcal/2rats and 772.5 kcal/2rats in assay [2] (2mg/kg, week 2, 2 mg/kg); 880 kcal/2rats and 863.5 kcal/2rats and 871.5 kcal/2rats in assay [2] (2mg/kg, week 3, 2 mg/kg); 363 kcal/2rats and 478.5 kcal/2rats and 346.5 kcal/2rats in assay [2] (5mg/kg, week 1, 5 mg/kg); 561 kcal/2rats and 621.5 kcal/2rats and 693 kcal/2rats in assay [2] (5mg/kg, week 2, 5 mg/kg); 599.5 kcal/2rats and 594 kcal/2rats and 665.5 kcal/2rats in assay [2] (5mg/kg, week 3, 5 mg/kg). Also, at α2B-adrenoceptor, the pEC50 was 6.48. Further, on α2B-adrenoceptor, the “Intrinsic activity at α2B-adrenoceptor (in words)” value is on record as “antagonist activity”.
